In patent US20150329918A1, “JAGGED1 AS A MARKER AND THERAPEUTIC TARGET FOR BREAST CANCER BONE METASTASIS” (The Trustees of Princeton University, priority 2011, published 2015):

Assays:
gamma-secretase = details: Lewis et al., 2007; cited from earlier work
MC3T3-E1 osteoblasts = test: Microarray gene expression profiling of FACS-separated MC3T3-E1 osteoblasts; assay type: cell-based, mouse; details: FIG. 11B
Text: For microarray analysis the quality of the FACS-separated MC3T3-E1 RNA samples was monitored using the 2100 bioanalyzer (Agilent) before gene expression profiling with the Agilent mouse […] microarrays. To find genes regulated by JAGGED1 and MRK-003 in osteoblasts, expression data of MC3T3-E1 under the indicated coculture and treatment conditions were generated and normalized by the array median, and probes were filtered by the expression levels. Probes with >2-fold changes in MC3T3-E1 cells cocultured with JAG1 OE tumor cells relative to vector-control tumor cells were identified as the regulated genes.

[1] = LoRusso et al, AACR 2009; cited from earlier work
Notch reporter = Notch reporter assay in MC3T3-E1 osteoblasts cocultured with JAG1 OE tumor cells; assay type: cell-based, mouse; details: 6-fold increase induced by JAG1 OE tumor cell coculture; FIG. 7A
Method: For transfection experiments, MC3T3-E1 osteoblasts were seeded at 2×10^5 cells/well in 12-well plates and grown to 95% confluence. For reporter assays, the firefly luciferase Notchreporter (Zeng et al., 2005, which is incorporated herein by reference as if fully set forth) and cytomegalovirus (CMV)-Renilla luciferase control (Promega) plasmids were transfected using Lipofectamine 2000 at concentrations designated by the manufacturer's instructions. After 4 hours, the transfection media was changed to regular media containing 1×10^5 vector control or JAG1 OE tumor cells per well and plated in triplicate in the presence of DMSO or MRK-003. Following 2 days, the coculture was lysed and subjected to a luciferase assay in which firefly counts (Notch reporter activity) was divided by renilla counts to normalize for transfection efficiency. For siRNA transfection experiments, a scrambled control siRNA or two distinct targeting siRNAs against Rbpj #1-[…] [SEQ ID NO: 6] and #2-[…] [SEQ ID NO: 7] or Hey1 #1-[…] [SEQ ID NO: 8] and #2-[…] [SEQ ID NO: 9] […] Following 6 days, the coculture was lysed and subjected to a luciferase assay to selectively quantify the number of tumor cells. For gene expression analysis, RNA from cocultures was collected in RLT lysis buffer, extracted with RNeasy mini kit (Qiagen), and subjected to quantitative RT-PCR.

[2] = test system: JAG1 OE tumor cells bone metastasis; test: Bone metastasis xenograft, JAG1 OE tumor cells, MRK-003 treatment; assay type: in vivo, mouse
Method: For bone metastsis studies, 10^5 tumor cells were injected into the left cardiac ventricle of anesthetized female athymic Ncr-nu/nu or BALB/c mice. Development of metastases was monitored by BLI. Bioluminescence images were acquired with a Xenogen IVIS 200 Imaging System. Analysis was performed with Living Image software by measuring photon flux in the hindlimbs of mice. Data were normalized to the signal on day 7. Bone metastasis-free survival curves represent the time point at which each mouse developed bone metastasis by threshold BLI signals in the hindlimbs. […]
Osteolysis was assessed by X-ray radiography. […] Osteolytic lesions were identified on radiographs as demarcated radiolucent lesions in the bone and quantified using the ImageJ software (National Institutes of Health).
Hindlimb bones were excised from mice at the end point of each experiment, immediately after the last BLI time point. […] For quantitative analysis of lesion area, a 5× objective was used to focus on the tumor region of interest and images were acquired using the AxioCamICc3 camera set to an exposure of 100 ms. Lesions that were larger than the field of view were quantified by acquiring multiple images to encompass the entire lesion. The “spline” function of the AxioVision software was used to outline the region of interest and subsequently quantify the lesion area. […]

O=S1(=O)N[C@@]2(CN1CC(F)(F)F)[C@@H]1CC[C@H]2Cc2ccc(/C=C/CN3CCC(C(F)(F)F)CC3)cc2C1 [MRK-003]
potency inhibiting gamma-secretase-mediated cleavage of Notch to NICD (gamma-secretase): sub-nanomolar
123 genes activated at least 3-fold in MC3T3-E1 by JAG1 OE coculture (MC3T3-E1 osteoblasts): concomitantly downregulated
clinical responses with once-weekly dosing [1]: strong clinical responses
tolerability of once-weekly dosing in the clinic [1]: well-tolerated
Notch activity (Notch reporter) (Notch reporter): abolished
osteolysis ([2]; JAG1 OE, FIG. 17D): reduced
reduction of bone metastasis in the JAG1 OE group ([2]; tumor signal decreased to levels of control group, FIGS. 17B-17C): more than 6 fold
